Patent US8420114B2, “Alpha and beta adrenergic receptor agonists for treatment of pain and / or inflammation” (Warsaw Orthopedic, Inc., priority 2008, dated 2013)

How the values were obtained:
[1] = tested on: rat Chronic Constriction Injury model (Bennett Model) of neuropathic pain; experiment: Hargreaves test of thermal hyperalgesia (thermal paw withdrawal latency) in rat chronic constriction injury model; format: in vivo, Wistar rat
Description: (§1) The inventors evaluated the efficacy of a various alpha-2-adrenergic receptor agonists and compared them against saline in the rat Chronic Constriction Injury model (i.e., Bennett Model) using Wistar rats. […] The doses given would mimic those achievable by a continuous release drug depot containing a biodegradable polymer (7 rats in each group).
Each group received the treatment indicated above for total of 15 days and subjected to the following two tests: (1) the Hargreaves test on days 7 and 14; and (2) the von Frey test on days 8 and 15.
(§2) Results from another rat chronic constriction injury model study silimar to that discussed in Example 5, except some drug compositions having predominantly alpha 1 agonist activity and some drug compositions having predominantly alpha 2 agonist activity were given as indicated in the table below. The doses given would mimic those achievable by a continuous release drug depot containing a biodegradable polymer (7 rats in each group). […]
(§3) The inventors evaluated the efficacy of a various beta-2-adrenergic receptor agonists and compared them to clonidine (an alpha-2-agonist) and saline in the rat Chronic Constriction Injury model (i.e., Bennett Model) using Wistar rats.
(§4) Hargreaves tests were conducted on days 7 and 14; and von Frey tests were performed on days 8 and 15, where some drug compositions having predominantly beta-2 agonist activity were compared to clonidine a drug composition that has predominantly alpha-2 agonist activity and saline. The doses given would mimic those achievable by a continuous release drug depot containing a biodegradable polymer (7 rats in each group).
Each group received the treatment indicated above for total of 15 days and the following two tests: (1) the Hargreaves test on days 7 and 14; and (2) the von Frey test on days 8 and 15.

[2] = tested on: rat Chronic Constriction Injury model (Bennett Model) of neuropathic pain; experiment: von Frey monofilament test of mechanical allodynia (mechanical threshold) in rat chronic constriction injury model; format: in vivo, Wistar rat
Description: as §1, with “group). […]” for “group).”
as §2, §3
as §4, with “[…],” for “and von Frey tests were performed on days 8 and 15,”, “group). […]” for “group).”

[3] = Example 5, FIG. 36, 100 micrograms/kg subcutaneous every day for 15 days, days 7 and 14
[4] = Example 7, FIG. 40, 5 mg/kg subcutaneous every day for 15 days, day 14, vs saline

## Clc1cccc(Cl)c1N=C1NCCN1 [clonidine, 2,6-dichloro-N-2-imidazolidinyldenebenzenamine]
[1]; Example 5, FIG. 36, 0.02 mg/kg subcutaneous every day for 15 days, days 7 and 14
  pain behavioral response for thermal hyperalgesia: statistically significant result of decreasing pain responses
[1]; Example 6, FIG. 37, 0.02 mg/kg subcutaneous every day for 15 days, days 7 and 14
  pain behavioral response for thermal hyperalgesia: statistically significant result of decreasing pain responses
[1]; Example 7, FIG. 39, 0.02 mg/kg subcutaneous every day for 15 days, day 14, vs saline
  pain behavioral response for thermal hyperalgesia: statistically significant result of decreasing pain responses
[2]; Example 5, FIG. 35, 0.02 mg/kg subcutaneous every day for 15 days, day 15, vs saline
  pain behavioral response for mechanical allodynia: statistically significant results of decreasing pain responses
[2]; clonidine subcutaneously 0.02 mg/kg/day, compared to unloaded polymer depots, FIG. 4
  pain behavioral response (measured as a percentage of baseline) for mechanical allodynia: reduced the behavioral response

## N=C(N)N/N=C/c1c(Cl)cccc1Cl [guanabenz]
[1]; Example 6, FIG. 37, 1 mg/kg subcutaneous every day for 15 days, day 7
  pain behavioral response for thermal hyperalgesia: statistically significant result of decreasing pain responses
[2]; Example 6, FIG. 38, 1 mg/kg subcutaneous daily, day 8, compared to saline
  pain behavioral response for mechanical allodynia: decreased mechanical allodynia
[2]; Example 6, FIG. 38, 5 mg/kg subcutaneous daily, day 15, compared to saline
  pain behavioral response for mechanical allodynia: decreased mechanical allodynia

## N=C(N)NC(=O)Cc1c(Cl)cccc1Cl [guanfacine]
[1]; Example 5, FIG. 36, 5 mg/kg subcutaneous every day for 15 days, days 7 and 14
  pain behavioral response for thermal hyperalgesia: statistically significant result of decreasing pain responses
[2]; Example 5, FIG. 35, 5 mg/kg subcutaneous every day for 15 days, day 15, vs saline
  pain behavioral response for mechanical allodynia: statistically significant results of decreasing pain responses

## Cc1cccc(C(C)c2cnc[nH]2)c1C (centres unmarked) [medetomidine]
[1]; [3]
  pain behavioral response for thermal hyperalgesia: statistically significant result of decreasing pain responses
[1]; Example 5, FIG. 36, 200 micrograms/kg subcutaneous every day for 15 days, day 14
  pain behavioral response for thermal hyperalgesia: statistically significant result of decreasing pain responses
[2]; Example 5, FIG. 35, 200 micrograms/kg subcutaneous every day for 15 days, day 15, vs saline
  pain behavioral response for mechanical allodynia: statistically significant results of decreasing pain responses

## Cc1cc(C(C)(C)C)c(O)c(C)c1CC1=NCCN1 [oxymetazoline]
[1]; Example 6, FIG. 37, 0.1 mg/kg subcutaneous every day for 15 days, day 7
  pain behavioral response for thermal hyperalgesia: statistically significant result of decreasing pain responses
[1]; Example 6, FIG. 37, 0.3 mg/kg subcutaneous every day for 15 days, days 7 and 14
  pain behavioral response for thermal hyperalgesia: statistically significant result of decreasing pain responses
[2]; Example 6, FIG. 38, 0.1 mg/kg subcutaneous every day for 15 days, day 8 and 15, compared to saline
  pain behavioral response for mechanical allodynia: decreasing pain responses
[2]; Example 6, FIG. 38, 0.3 mg/kg subcutaneous every day for 15 days, day 8 and 15, compared to saline
  pain behavioral response for mechanical allodynia: decreasing pain responses

## CNC[C@H](O)c1cccc(O)c1 [phenylephrine]
[1]; Example 6, FIG. 37, 2 mg/kg subcutaneous every day for 15 days, day 7
  pain behavioral response for thermal hyperalgesia: statistically significant result of decreasing pain responses
[1]; Example 6, FIG. 37, 10 mg/kg subcutaneous every day for 15 days, days 7 and 14
  pain behavioral response for thermal hyperalgesia: statistically significant result of decreasing pain responses
[2]; Example 6, FIG. 38, 10 mg/kg subcutaneous daily, day 8, compared to saline
  pain behavioral response for mechanical allodynia: decreased mechanical allodynia

## CC(NCCc1ccc(O)cc1)C(O)c1ccc(O)cc1 (centres unmarked) [ritodrine]
[1]; Example 7, FIG. 39, 2 mg/kg subcutaneous every day for 15 days, day 7, vs saline
  pain behavioral response for thermal hyperalgesia: statistically significant result of decreasing pain responses
[1]; Example 7, FIG. 39, 5 mg/kg subcutaneous every day for 15 days, day 14, vs saline
  pain behavioral response for thermal hyperalgesia: statistically significant result of decreasing pain responses
[2]; [4]
  pain behavioral response for mechanical allodynia: statistically significant result of decreasing pain responses

## CC(C)(C)NCC(O)c1ccc(O)c(CO)c1 (centres unmarked) [salbutamol]
[1]; Example 7, FIG. 39, 5 mg/kg subcutaneous every day for 15 days, days 7 and 14, vs saline
  pain behavioral response for thermal hyperalgesia: statistically significant result of decreasing pain responses
[1]; Example 7, FIG. 39, 10 mg/kg subcutaneous every day for 15 days, days 7 and 14, vs saline
  pain behavioral response for thermal hyperalgesia: statistically significant result of decreasing pain responses
[2]; [4]
  pain behavioral response for mechanical allodynia: statistically significant result of decreasing pain responses
[2]; Example 7, FIG. 40, 10 mg/kg subcutaneous every day for 15 days, days 8 and 15, vs saline
  pain behavioral response for mechanical allodynia: statistically significant result of decreasing pain responses

## CC(C)(C)NCC(O)c1cc(O)cc(O)c1 (centres unmarked) [terbutaline]
[1]; Example 7, FIG. 39, 0.1 mg/kg subcutaneous every day for 15 days, days 7 and 14, vs saline
  pain behavioral response for thermal hyperalgesia: statistically significant result of decreasing pain responses
[1]; Example 7, FIG. 39, 0.5 mg/kg subcutaneous every day for 15 days, days 7 and 14, vs saline
  pain behavioral response for thermal hyperalgesia: statistically significant result of decreasing pain responses
[2]; Example 7, FIG. 40, 0.5 mg/kg subcutaneous every day for 15 days, day 14, vs saline
  pain behavioral response for mechanical allodynia: statistically significant result of decreasing pain responses

## Clc1ccc2nsnc2c1NC1=NCCN1 [tizanidine]
[1]; [3]
  pain behavioral response for thermal hyperalgesia: statistically significant result of decreasing pain responses
[2]; Example 5, FIG. 35, 100 micrograms/kg subcutaneous every day for 15 days, day 15, vs saline
  pain behavioral response for mechanical allodynia: statistically significant results of decreasing pain responses
